According to PubChem BioAssay AID192 (DTP/NCI, 2004):
Several values for one entry are separate records, joined by “and”; a condition that tells them apart may be missing. Equal values may be shown once. Inconclusive results and toxic doses are left out.

System: BDF1 mice, B16 melanoma ip, median survival T/C
Assay: NCI In Vivo Anticancer Drug Screen. Data for tumor model B16 Melanoma (intraperitoneal) in B6D2F1 (BDF1) mice
Settings: endpoint: median survival time, higher = longer survival
In short: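 The ratio T/C compares compound-treated mice with vehicle-treated controls, using survival or tumor size as the endpoint in a transplantable tumor model.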

[1] = dose: 100.0 mg/kg/injection, schedule: Q01DX009 (ip), vehicle: Klucel (hydroxypropylcellulose) (HPC)
[2] = dose: 200.0 mg/kg/injection, schedule: Q01DX009 (ip), vehicle: Klucel (hydroxypropylcellulose) (HPC)
[3] = dose: 400.0 mg/kg/injection, schedule: Q01DX009 (ip), vehicle: Klucel (hydroxypropylcellulose) (HPC)
[4] = dose: 12.5 mg/kg/injection, schedule: Q01DX009 (ip), vehicle: Klucel (hydroxypropylcellulose) (HPC)
[5] = dose: 50.0 mg/kg/injection, schedule: Q01DX009 (ip), vehicle: Klucel (hydroxypropylcellulose) (HPC)
[6] = dose: 100.0 mg/kg/injection, schedule: Q04DX003 (ip), vehicle: Klucel (hydroxypropylcellulose) (HPC)
[7] = dose: 200.0 mg/kg/injection, schedule: Q04DX003 (ip), vehicle: Klucel (hydroxypropylcellulose) (HPC)
[8] = dose: 400.0 mg/kg/injection, schedule: Q04DX003 (ip), vehicle: Klucel (hydroxypropylcellulose) (HPC)
[9] = dose: 12.5 mg/kg/injection, schedule: Q01DX009 (ip), vehicle: saline
[10] = dose: 25.0 mg/kg/injection, schedule: Q01DX009 (ip), vehicle: saline
[11] = dose: 50.0 mg/kg/injection, schedule: Q01DX009 (ip), vehicle: saline
[12] = dose: 0.78 mg/kg/injection, schedule: Q01DX009 (ip), vehicle: saline
[13] = dose: 6.25 mg/kg/injection, schedule: Q01DX009 (ip), vehicle: saline
[14] = dose: 1.56 mg/kg/injection, schedule: Q01DX009 (ip), vehicle: saline
[15] = dose: 3.12 mg/kg/injection, schedule: Q01DX009 (ip), vehicle: saline

Cc1c(Cl)cccc1NC(=O)Oc1ccc(Cl)cc1
T/C [1]: 98 % of control | T/C [2]: 101 % of control | T/C [3]: 96 % of control

CCCCCCOP(=O)(CCCCCC)OCCCCCC
T/C [4]: 91 % of control | T/C [5]: 94 % of control | T/C [1]: 97 % of control

CCc1ccccc1NC(=O)NC(C)C
T/C [6]: 100 % of control | T/C [7]: 110 % of control | T/C [8]: 100 % of control

CC(C)(c1ccccc1)c1ccc(O)cc1
T/C (dose: 37.5 mg/kg/injection, schedule: Q01DX009 (ip), vehicle: other): 97 % of control | T/C (dose: 75.0 mg/kg/injection, schedule: Q01DX009 (ip), vehicle: other): 100 % of control | T/C (dose: 150.0 mg/kg/injection, schedule: Q01DX009 (ip), vehicle: other): 94 % of control | T/C (dose: 150.0 mg/kg/injection, schedule: Q04DX003 (ip), vehicle: saline + alcohol): 90 % of control | T/C (dose: 300.0 mg/kg/injection, schedule: Q01DX009 (ip), vehicle: other): 94 % of control | T/C (dose: 300.0 mg/kg/injection, schedule: Q04DX003 (ip), vehicle: saline + alcohol): 104 % of control | T/C (dose: 600.0 mg/kg/injection, schedule: Q04DX003 (ip), vehicle: saline + alcohol): 95 % of control

CCCNC1=C(N2CC2)C(=O)C(NCCC)=C(N2CC2)C1=O
T/C (dose: 1.25 mg/kg/injection, schedule: Q01DX009 (ip), vehicle: saline): 108 % of control

O=P1(NCCCl)OCCCN1CCCl (stereo not drawn)
T/C [9]: 109 % of control | T/C [10]: 103 % of control and 111 % of control and 119 % of control | T/C (dose: 25.0 mg/kg/injection, schedule: Q01DX009 (ip), vehicle: water): 104 % of control and 121 % of control | T/C (dose: 25.0 mg/kg/injection, schedule: Q02DX009 (ip), vehicle: saline): 100 % of control and 107 % of control | T/C (dose: 25.0 mg/kg/injection, schedule: Q02DX009 (ip), vehicle: water): 114 % of control | T/C [11]: 90 % of control and 111 % of control and 116 % of control | T/C (dose: 50.0 mg/kg/injection, schedule: Q02DX009 (ip), vehicle: water): 124 % of control | T/C (dose: 100.0 mg/kg/injection, schedule: Q01DX009 (ip), vehicle: water): 169 % of control | T/C (dose: 200.0 mg/kg/injection, schedule: Q02DX009 (ip), vehicle: water): 122 % of control

O=C(Nc1ccccc1O)/C(Cl)=C/Cl
T/C [4]: 92 % of control | T/C (dose: 25.0 mg/kg/injection, schedule: Q01DX009 (ip), vehicle: Klucel (hydroxypropylcellulose) (HPC)): 93 % of control | T/C [5]: 90 % of control

O=C1NC2(CCCCC2)C(=O)N1CCN(CCCl)CCCl
T/C (dose: 0.75 mg/kg/injection, schedule: Q01DX009 (ip), vehicle: saline): 105 % of control and 107 % of control | T/C [12]: 95 % of control and 109 % of control and 263 % of control | T/C (dose: 3.0 mg/kg/injection, schedule: Q01DX009 (ip), vehicle: saline): 107 % of control | T/C (dose: 6.0 mg/kg/injection, schedule: Q01DX009 (ip), vehicle: saline with Tween-80): 168 % of control and 191 % of control | T/C [13]: 152 % of control and 176 % of control

COc1cc2cc(c1Cl)N(C)C(=O)CC(OC(=O)C(C)C)C1(C)OC1C(C)C1CC(O)(NC(=O)O1)C(OC)/C=C/C=C(C)C2 (stereo not drawn)
T/C (dose: 3.1 micrograms/kg/injection, schedule: Q01DX009 (ip), vehicle: saline + alcohol): 124 % of control | T/C (dose: 6.25 micrograms/kg/injection, schedule: Q01DX009 (ip), vehicle: saline + alcohol): 169 % of control | T/C (dose: 7.0 micrograms/kg/injection, schedule: Q01DX009 (ip), vehicle: saline + alcohol): 150 % of control | T/C (dose: 12.5 micrograms/kg/injection, schedule: Q01DX009 (ip), vehicle: saline + alcohol): 152 % of control and 168 % of control | T/C (dose: 15.0 micrograms/kg/injection, schedule: Q01DX009 (ip), vehicle: saline + alcohol): 165 % of control | T/C (dose: 25.0 micrograms/kg/injection, schedule: Q01DX009 (ip), vehicle: saline + alcohol): 157 % of control and 160 % of control and 165 % of control | T/C (dose: 30.0 micrograms/kg/injection, schedule: Q01DX009 (ip), vehicle: saline + alcohol): 178 % of control | T/C (dose: 50.0 micrograms/kg/injection, schedule: Q01DX009 (ip), vehicle: saline + alcohol): 164 % of control and 176 % of control | T/C (dose: 60.0 micrograms/kg/injection, schedule: Q01DX009 (ip), vehicle: saline + alcohol): 182 % of control

Cc1cc(NS(=O)(=O)c2ccccc2)c2c(c1NS(=O)(=O)c1ccccc1)CC=CC2
T/C [6]: 97 % of control | T/C [7]: 94 % of control | T/C [8]: 86 % of control

COC1=C(N)C(=O)c2nc(-c3nc(C(=O)O)c(C)c(-c4ccc(OC)c(OC)c4O)c3N)ccc2C1=O
T/C (dose: 0.03 mg/kg/injection, schedule: Q01DX009 (ip), vehicle: saline): 113 % of control | T/C (dose: 0.05 mg/kg/injection, schedule: Q01DX009 (ip), vehicle: saline): 102 % of control | T/C (dose: 0.1 mg/kg/injection, schedule: Q01DX009 (ip), vehicle: saline): 102 % of control | T/C (dose: 0.2 mg/kg/injection, schedule: Q01DX009 (ip), vehicle: saline): 113 % of control | T/C (dose: 0.4 mg/kg/injection, schedule: Q01DX009 (ip), vehicle: saline): 100 % of control | T/C (dose: 25.0 micrograms/kg/injection, schedule: Q01DX009 (ip), vehicle: saline): 100 % of control | T/C (dose: 50.0 micrograms/kg/injection, schedule: Q01DX009 (ip), vehicle: saline): 111 % of control | T/C (dose: 100.0 micrograms/kg/injection, schedule: Q01DX009 (ip), vehicle: saline): 112 % of control | T/C (dose: 200.0 micrograms/kg/injection, schedule: Q01DX009 (ip), vehicle: saline): 104 % of control

CCOC(=O)C(Cc1ccc(O)cc1)Nc1nc2ccccc2o1 (stereo not drawn)
T/C (dose: 50.0 mg/kg/injection, schedule: Q01DX009 (ip), vehicle: saline with Tween-80): 103 % of control | T/C (dose: 100.0 mg/kg/injection, schedule: Q01DX009 (ip), vehicle: saline with Tween-80): 106 % of control | T/C (dose: 200.0 mg/kg/injection, schedule: Q01DX009 (ip), vehicle: saline with Tween-80): 106 % of control | T/C (dose: 400.0 mg/kg/injection, schedule: Q01DX009 (ip), vehicle: saline with Tween-80): 96 % of control

Nc1n[nH]c(C(=O)O)n1
T/C [1]: 97 % of control | T/C [2]: 97 % of control | T/C [3]: 97 % of control

CCOC(=O)C(C(=O)OCC)N(CC)CC
T/C [1]: 93 % of control | T/C [2]: 90 % of control | T/C [3]: 100 % of control

CCC(=O)NC1=C(N2CC2C)C(=O)C(NC(=O)CC)=C(N2CC2C)C1=O (stereo not drawn)
T/C (dose: 0.39 mg/kg/injection, schedule: Q01DX009 (ip), vehicle: Klucel (hydroxypropylcellulose) (HPC)): 119 % of control | T/C (dose: 0.78 mg/kg/injection, schedule: Q01DX009 (ip), vehicle: Klucel (hydroxypropylcellulose) (HPC)): 95 % of control | T/C (dose: 1.56 mg/kg/injection, schedule: Q01DX009 (ip), vehicle: Klucel (hydroxypropylcellulose) (HPC)): 111 % of control | T/C (dose: 3.12 mg/kg/injection, schedule: Q01DX009 (ip), vehicle: Klucel (hydroxypropylcellulose) (HPC)): 102 % of control | T/C (dose: 6.25 mg/kg/injection, schedule: Q01DX009 (ip), vehicle: Klucel (hydroxypropylcellulose) (HPC)): 123 % of control

C(=N/NC1=NCCN1)/c1c2ccccc2c(/C=N\NC2=NCCN2)c2ccccc12
T/C [12]: 156 % of control | T/C [14]: 181 % of control | T/C [15]: 205 % of control | T/C [13]: 225 % of control | T/C [9]: 294 % of control

CN(C)CCC=C1c2ccccc2C=Cc2ccccc21
T/C (dose: 0.39 mg/kg/injection, schedule: Q01DX009 (ip), vehicle: saline): 96 % of control | T/C [12]: 102 % of control | T/C [14]: 98 % of control and 97 % of control | T/C [15]: 96 % of control and 100 % of control | T/C [13]: 86 % of control and 123 % of control and 93 % of control | T/C [9]: 111 % of control | T/C [10]: 118 % of control and 90 % of control | T/C [11]: 101 % of control
